{
  "source": "patent US20230293526A1",
  "about": "“METHOD FOR TREATING CANCER WITH A REVERSE TRANSCRIPTASE INHIBITOR” (PrimeFour Therapeutics, Inc., priority 2020, published 2023)",
  "assay_in_all_cases": "Cell proliferation CellTiterGlo Ex.2",
  "assay_type_in_all_cases": "cell-based",
  "key": {"786-O": {"test_system": "786-O", "details": "Homo sapiens, 786-0; 786-O (Kidney), 72 h", "protocol": "(§1) A dose response relationship on cell proliferation was assessed for Compound 13 on 140 tumor cell lines. Briefly, compound treatment of cells started one day after seeding with a final DMSO concentration of 0.100, and was performed by nanodrop-dispensing using a Tecan Dispenser. 0.10% DMSO (solvent) and Staurosporine (10 μM) served as high control (10000 viability) and low control (000 viability), respectively. Compound 13 was tested at 10, 3, 1, 0.3, 0.1, 0.03, 0.01, and 0.003 μM.\n(§2) Cells were cultured in the appropriate media. For the assays, cells were seeded in white cell culture-treated flat and clear bottom multiwell plates and incubated at 37° C. overnight before compound was added. After incubation for 72 h at 37° C. at 5% or 10% CO2 dependent on the medium, cell plates were equilibrated to room temperature for one hour, CellTiterGlo reagent (Promega) was added and luminescence was measured approximately an hour later using a luminometer.\n(§3) Raw data were converted into percent cell viability relative to the high and low control, which were set to 10000 and 000, respectively."}, "A172": {"test_system": "A172", "details": "Homo sapiens, A 172; A172 (Brain), 72 h", "protocol": "as §1, §2, §3"}, "A375": {"test_system": "A375", "details": "Homo sapiens, A-375; A375 (Skin), 72 h", "protocol": "as §1, §2, §3"}, "A431": {"test_system": "A431", "details": "Homo sapiens, A-431; A431 (Skin), 72 h", "protocol": "as §1, §2, §3"}, "A549": {"test_system": "A549", "details": "Homo sapiens; A549 (Lung), 72 h", "protocol": "as §1, §2, §3"}, "Colo 205": {"test_system": "Colo 205", "details": "Homo sapiens; Colo 205 (Colon), 72 h", "protocol": "as §1, §2, §3"}, "Detroit562": {"test_system": "Detroit562", "details": "Homo sapiens, Detroit 562; Detroit562 (Head/Neck), 72 h", "protocol": "as §1, §2, §3"}, "EFM-192A": {"test_system": "EFM-192A", "details": "EFM-192A (Breast), 72 h", "protocol": "as §1, §2, §3"}, "EPLC-272H": {"test_system": "EPLC-272H", "details": "Homo sapiens; EPLC-272H (Lung), 72 h", "protocol": "as §1, §2, §3"}, "H460": {"test_system": "H460", "details": "Homo sapiens, NCI-H460; H460 (Lung), 72 h", "protocol": "as §1, §2, §3"}, "HCT-15": {"test_system": "HCT-15", "details": "Homo sapiens; HCT-15 (Colon), 72 h", "protocol": "as §1, §2, §3"}, "J82": {"test_system": "J82", "details": "Homo sapiens; J82 (Bladder), 72 h", "protocol": "as §1, §2, §3"}, "KARPAS 299": {"test_system": "KARPAS 299", "details": "Homo sapiens; KARPAS 299 (Blood), 72 h", "protocol": "as §1, §2, §3"}, "KG-1 a": {"test_system": "KG-1 a", "details": "Homo sapiens; KG-1 a (Blood), 72 h", "protocol": "as §1, §2, §3"}, "Kato III": {"test_system": "Kato III", "details": "Homo sapiens; Kato III (Stomach), 72 h", "protocol": "as §1, §2, §3"}, "M07e": {"test_system": "M07e", "details": "M-07e; M07e (Blood), 72 h", "protocol": "as §1, §2, §3"}, "MCAS": {"test_system": "MCAS", "details": "MCAS (Ovary), 72 h", "protocol": "as §1, §2, §3"}, "MDA MB 435": {"test_system": "MDA MB 435", "details": "Homo sapiens; MDA MB 435 (Skin), 72 h", "protocol": "as §1, §2, §3"}, "MOLT-4": {"test_system": "MOLT-4", "details": "Homo sapiens; MOLT-4 (Blood), 72 h", "protocol": "as §1, §2, §3"}, "NCI-H1563": {"test_system": "NCI-H1563", "details": "Homo sapiens; NCI-H1563 (Lung), 72 h", "protocol": "as §1, §2, §3"}, "NCI-H1573": {"test_system": "NCI-H1573", "details": "Homo sapiens; NCI-H1573 (Lung), 72 h", "protocol": "as §1, §2, §3"}, "NCI-H441": {"test_system": "NCI-H441", "details": "Homo sapiens; NCI-H441 (Lung), 72 h", "protocol": "as §1, §2, §3"}, "NCI-H82": {"test_system": "NCI-H82", "details": "Homo sapiens; NCI-H82 (Lung), 72 h", "protocol": "as §1, §2, §3"}, "OCI-LY19": {"test_system": "OCI-LY19", "details": "Homo sapiens; OCI-LY19 (Blood), 72 h", "protocol": "as §1, §2, §3"}, "OVCAR-3": {"test_system": "OVCAR-3", "details": "Homo sapiens; OVCAR-3 (Ovary), 72 h", "protocol": "as §1, §2, §3"}, "PANC-1": {"test_system": "PANC-1", "details": "Homo sapiens; PANC-1 (Pancreas), 72 h", "protocol": "as §1, §2, §3"}, "RL95-2": {"test_system": "RL95-2", "details": "Homo sapiens; RL95-2 (Endometrium), 72 h", "protocol": "as §1, §2, §3"}, "SCLC-21H": {"test_system": "SCLC-21H", "details": "Homo sapiens; SCLC-21H (Lung), 72 h", "protocol": "as §1, §2, §3"}, "SJSA-1": {"test_system": "SJSA-1", "details": "Homo sapiens; SJSA-1 (Bone), 72 h", "protocol": "as §1, §2, §3"}, "SW-1783": {"test_system": "SW-1783", "details": "Homo sapiens, SW1783; SW-1783 (Brain), 72 h", "protocol": "as §1, §2, §3"}, "SW480": {"test_system": "SW480", "details": "Homo sapiens; SW480 (Colon), 72 h", "protocol": "as §1, §2, §3"}, "SW948": {"test_system": "SW948", "details": "Homo sapiens; SW948 (Colon), 72 h", "protocol": "as §1, §2, §3"}, "T-47D": {"test_system": "T-47D", "details": "Homo sapiens, T47D; T-47D (Breast), 72 h", "protocol": "as §1, §2, §3"}},
  "note": "pIC50: −log10 of the molar value.",
  "data": [
    {"smiles": "C#C[C@]1(CO)O[C@@H](n2cnc3c(=O)[nH]c(N)nc32)C[C@@H]1O", "note": "[compound 13]", "values": [
      {"measurement": "pIC50", "setting": "786-O", "value": 5.24},
      {"measurement": "pIC50", "setting": "A172", "value": "< 5.00"},
      {"measurement": "pIC50", "setting": "A375", "value": 5.63},
      {"measurement": "pIC50", "setting": "A431", "value": 5.30},
      {"measurement": "pIC50", "setting": "A549", "value": "< 5.00"},
      {"measurement": "pIC50", "setting": "Colo 205", "value": 5.82},
      {"measurement": "pIC50", "setting": "Detroit562", "value": 5.32},
      {"measurement": "pIC50", "setting": "EFM-192A", "value": "< 5.00"},
      {"measurement": "pIC50", "setting": "EPLC-272H", "value": 5.18},
      {"measurement": "pIC50", "setting": "H460", "value": 5.25},
      {"measurement": "pIC50", "setting": "HCT-15", "value": "< 5.00"},
      {"measurement": "pIC50", "setting": "J82", "value": 5.24},
      {"measurement": "pIC50", "setting": "KARPAS 299", "value": 5.39},
      {"measurement": "pIC50", "setting": "KG-1 a", "value": 5.23},
      {"measurement": "pIC50", "setting": "Kato III", "value": 5.31},
      {"measurement": "pIC50", "setting": "M07e", "value": 5.39},
      {"measurement": "pIC50", "setting": "MCAS", "value": "< 5.00"},
      {"measurement": "pIC50", "setting": "MDA MB 435", "value": "< 5.00"},
      {"measurement": "pIC50", "setting": "MOLT-4", "value": 6.29},
      {"measurement": "pIC50", "setting": "NCI-H1563", "value": "< 5.00"},
      {"measurement": "pIC50", "setting": "NCI-H1573", "value": 5.07},
      {"measurement": "pIC50", "setting": "NCI-H441", "value": 5.44},
      {"measurement": "pIC50", "setting": "NCI-H82", "value": 5.19},
      {"measurement": "pIC50", "setting": "OCI-LY19", "value": 6.25},
      {"measurement": "pIC50", "setting": "OVCAR-3", "value": 5.94},
      {"measurement": "pIC50", "setting": "PANC-1", "value": "< 5.00"},
      {"measurement": "pIC50", "setting": "RL95-2", "value": 5.27},
      {"measurement": "pIC50", "setting": "SCLC-21H", "value": 5.17},
      {"measurement": "pIC50", "setting": "SJSA-1", "value": 5.19},
      {"measurement": "pIC50", "setting": "SW-1783", "value": 5.65},
      {"measurement": "pIC50", "setting": "SW480", "value": "< 5.00"},
      {"measurement": "pIC50", "setting": "SW948", "value": 5.30},
      {"measurement": "pIC50", "setting": "T-47D", "value": "< 5.00"}
    ]}
  ]
}
